Patent US20260285857A1, “BICYCLIC AND HETEROCYCLIC AMIDE COMPOUNDS” (priority 2024, published 2026)

Test system: immunoglobulin light chain protein WIL-FL T46L
Test: Differential scanning fluorimetry (thermal shift) assay
Assay type: binding
Conditions: temperature shift [Tm]compound-[Tm]vehicle, recombinant WIL-FL T46L

SMILES	DSF (Table A)	DSF (Table B)
Cc1cc(N2CC[C@](C)(c3ccccc3)C2)cn2nc(C(=O)O)nc12 [Compound 184]	** (>0.5-1 °C =**)	
Cc1cc(N2CC[C@](C)(c3ccccc3)C2)cn2nc(C(=O)NC3CC4(C3)CC(N3CCCC(C(=O)O)C3)C4)nc12 (some centres unmarked) [Compound 380]	***** (>2.5° C.=*****)	
Cc1cc(N2CCC(C)(c3cccnc3)C2)cn2nc(C(=O)N3CC[C@@]4(CCN(c5cccc(C(=O)O)n5)C4)C3)nc12 (some centres unmarked) [Compound 427]	*** (>1-1.5° C.=***)	
Cc1cc(N2CC[C@](C)(c3ccccc3)C2)cn2nc(C(=O)N3CCC4(CCC(C(=O)O)O4)C3)nc12 (some centres unmarked) [Compound 594]		***** (>2.5° C.=*****)
Cc1cc(OC[C@H](C)c2ccccc2)cn2nc(C(=O)N3CCC4(CCN(c5cccc(C(=O)O)n5)C4)C3)nc12 (some centres unmarked) [Compound 311]	***** (>2.5° C.=*****)	
Cc1ncn(CC23CC(C(=O)O)(C2)C(c2nc4c(C)cc(N5CC[C@](C)(c6ccccc6)C5)cn4n2)O3)n1 (some centres unmarked) [Compound 94]	***** (>2.5° C.=*****)	
CNC(=O)c1cc2c(N)cc(N3CC[C@](C)(c4ccccc4)C3)cn2n1 [Compound 292]	*** (>1-1.5° C.=***)	
Cc1cc(N2CC[C@@](C)(c3ccc(F)cc3)C2)cn2nc(C(=O)N3CC[C@@]4(CCN(c5cccc(C(=O)O)n5)C4)C3)nc12 [Compound 428]	***** (>2.5° C.=*****)	
Cc1cc(N2CC[C@](C)(c3ccccc3)C2)cn2nc(C(=O)NC3CCC(c4ccc(C(=O)O)c(F)c4)CC3)nc12 (some centres unmarked) [Compound 224]	***** (>2.5° C.=*****)	
COc1ccc([C@@]2(C)CCN(c3cc(C)c4nc(C(=O)N5CC[C@@]6(CCN(c7cccc(C(=O)O)n7)C6)C5)nn4c3)C2)cc1 [Compound 411]	***** (>2.5° C.=*****)	
Cc1cc(N2CC[C@](C)(c3ccccc3)C2)cn2nc(S(=O)(=O)NCC(C)(C)O)nc12 [Compound 323]	***** (>2.5° C.=*****)	
Cc1cc(N2CC[C@](C)(c3ccccc3)C2)cn2nc(C34CC(CO3)C4N3CC4(CCC4)NC3=O)nc12 (stereo partly drawn) [Compound 532, 7-(1-(8-methyl-6-((R)-3-methyl-3-phenylpyrrolidin-1-yl)-[1,2,4]triazolo[1,5-a]pyridin-2-yl)-2-oxabicyclo[2.1.1]hexan-5-yl)-5,7-diazaspiro[3.4]octan-6-one]		***** (>2.5° C.=*****)
Cc1cc(N2CC[C@](C)(c3ccccc3)C2)cn2nc(S(=O)(=O)NC3CNC3)nc12 [Compound 27, N-(azetidin-3-yl)-8-methyl-6-[(3R)-3-methyl-3-phenyl-pyrrolidin-1-yl]-[1,2,4]triazolo[1,5-a]pyridine-2-sulfonamide]	***** (>2.5° C.=*****)	
Cc1cc(N2CC[C@](C)(c3ccccc3)C2)cn2nc(C(=O)N3CCC4(CCC(N5CC(C(=O)O)C5)C4)C3)nc12 (some centres unmarked) [Compound 722]		***** (>2.5° C.=*****)
Cc1cc(N2CC[C@](C)(c3ccccc3)C2)cn2nc(C(=O)N3CCC34CCCN(c3cccc(C(=O)O)n3)C4)nc12 (some centres unmarked) [Compound 195]	***** (>2.5° C.=*****)	
COc1ccc(OCC2C3COC2(c2nc4c(C)cc(N5CC[C@](C)(c6ccccc6)C5)cn4n2)C3)cn1 (some centres unmarked) [Compound 499]		***** (>2.5° C.=*****)
Cc1cc(N2CC[C@](C)(c3ccccc3)C2)cn2nc(C34CC(Cn5ncnc5C)(CO3)C4)nc12 [Compound 449]		***** (>2.5° C.=*****)
Cc1cc(N2CC[C@](C)(c3ccccc3)C2)cn2nc(C34CC(CO3)C4N3C[C@]4(CC[C@@H](C(=O)O)CC4)NC3=O)nc12 (some centres unmarked) [Compound 526]		***** (>2.5° C.=*****)
Cc1cc(N2CC[C@](C)(c3ccccc3)C2)cn2nc(C(=O)N3CCC(OCC(=O)O)CC3)nc12 [Compound 182]	***** (>2.5° C.=*****)	
Cc1cc(N2CC[C@](C)(c3ccccc3)C2)cn2nc(C(=O)NC3CCC(c4cccc(C(=O)O)n4)OC3)nc12 (some centres unmarked) [Compound 254]	***** (>2.5° C.=*****)	
Cc1cc(N2CC[C@](C)(c3ccccc3)C2)cn2nc(C34CC(CO3)C4CN3CCC(C(=O)O)CC3=O)nc12 (some centres unmarked) [Compound 490]		***** (>2.5° C.=*****)
Cc1cc(N2CC[C@](C)(c3ccccc3)C2)cn2nc(C(=O)N3CCC4(CCN(c5cc(C(=O)O)cnn5)C4)C3)nc12 (some centres unmarked) [Compound 626]		***** (>2.5° C.=*****)
CCC(=O)NCC12COC(c3nc4c(C)cc(N5CC[C@](C)(c6ccccc6)C5)cn4n3)(C1)C2 [Compound 462]		***** (>2.5° C.=*****)
CC[C@]1(c2ccccc2)CCN(c2cc(C)c3nc(C45CC(N)(CO4)C5)nn3c2)C1 [Compound 51]	** (>0.5-1 °C =**)	
Cc1cc(N2CC[C@](C)(c3ccccc3)C2)cn2nc(C(=O)NC3CC(=O)N(c4ccnc(C(=O)O)c4)C3)nc12 (some centres unmarked) [Compound 243]	***** (>2.5° C.=*****)	
Cc1ncn(C2(C)CCN(c3cc(C)c4nc(C(=O)N5C[C@@H]6CN(c7cccc(C(=O)O)n7)C[C@@H]6C5)nn4c3)C2=O)n1 (stereo partly drawn) [Compound 25, 6-((3aR,6aS)-5-(8-methyl-6-(3-methyl-3-(3-methyl-1H-1,2,4-triazol-1-yl)-2-oxopyrrolidin-1-yl)-[1,2,4]triazolo[1,5-a]pyridine-2-carbonyl)hexahydropyrrolo[3,4-c]pyrrol-2(1H)-yl)picolinic acid]	* (0-0.5° C.=*)	
CCC(=O)NCC1C2COC1(c1nc3c(C)cc(N4CC[C@](C)(c5ccccc5)C4)cn3n1)C2 (some centres unmarked) [Compound 81]	***** (>2.5° C.=*****)	

SMILES	DSF (Table A)	DSF (Table B)
Cc1cc(N2CC[C@](C)(c3ccccc3)C2)cn2nc(C(=O)N[C@H](CO)C(C)C)nc12 [Compound 206]	***** (>2.5° C.=*****)	
Cc1cc(N2CC[C@](C)(c3ccccc3)C2)cn2nc(C34CC(NC(=O)Cn5ncnc5C)(CO3)C4)nc12 [Compound 62]	***** (>2.5° C.=*****)	
Cc1cc(N2CC[C@](C)(c3ccccc3)C2)cn2nc(C(=O)N3CCC4(CCN(c5ncno5)C4)C3)nc12 (some centres unmarked) [Compound 253]	***** (>2.5° C.=*****)	
Cc1cc(N2CC[C@](C)(c3ccccc3)C2)cn2nc(C(=O)N3CCC4(CCN(c5ccc(C#N)c(C(=O)O)n5)C4)C3)nc12 (mixture of isomers) [Compound 609, 3-cyano-6-[2-[8-methyl-6-[rac-(3R)-3-methyl-3-phenyl-pyrrolidin-1-yl]-[1,2,4]triazolo[1,5-a]pyridine-2-carbonyl]-2,7-diazaspiro[4.4]nonan-7-yl]pyridine-2-carboxylic acid]		***** (>2.5° C.=*****)
Cc1cc(N2CC[C@](C)(c3ccccc3)C2)cn2nc(C(=O)N[C@@H]3CNCC34CC4)nc12 [Compound 186]	***** (>2.5° C.=*****)	
Cc1ccc(N2CCC3(CCN(C(=O)c4nc5c(C)cc(N6CC[C@](C)(c7ccccc7)C6)cn5n4)C3)C2)nc1C(=O)O (some centres unmarked) [Compound 627]		***** (>2.5° C.=*****)
Cc1cc(N2CC[C@](C)(c3ccccc3)C2)cn2nc(C(=O)Nc3ccnc(C(=O)O)c3)nc12 [Compound 262]	***** (>2.5° C.=*****)	
Cc1cc(N2CC[C@](C)(c3ccccc3)C2)cn2nc(C(=O)N3CCC4(C3)CN(c3cccc(C(=O)O)n3)CCO4)nc12 (some centres unmarked) [Compound 222]	***** (>2.5° C.=*****)	
Cc1cc(N2CC[C@](C)(c3ccccc3)C2)cn2nc(C(=O)N3CCC4(CCN(C5CCCC(C(=O)O)C5)C4)C3)nc12 (some centres unmarked) [Compound 289]	***** (>2.5° C.=*****)	
Cc1cc(N2CC[C@](C)(c3ccccc3)C2)cn2nc(C(=O)NC3CC[C@@H]3Nc3cccc(C(=O)O)n3)nc12 (some centres unmarked) [Compound 635]		***** (>2.5° C.=*****)
Cc1cc(N2CC[C@](C)(c3ccccc3)C2)cn2nc(C34CC(CO)(CO3)C4)nc12 [Compound 60]	***** (>2.5° C.=*****)	
Cc1cc(N2CCC(C)(c3ccccc3)C2=O)cn2nc(C(=O)N3CC[C@@]4(CCN(c5cccc(C(=O)O)n5)C4)C3)nc12 (some centres unmarked) [Compound 386]	** (>0.5-1 °C =**)	
Cc1cc(NC(=O)C23COC(c4nc5c(C)cc(N6CC[C@](C)(c7ccccc7)C6)cn5n4)(C2)C3)cc(C(=O)O)n1 [Compound 452]		***** (>2.5° C.=*****)
Cc1cc(N2CC[C@](C)(c3ccccc3)C2)cn2nc(C3OC4(CO)CC3(C(N)=O)C4)nc12 (some centres unmarked) [Compound 12]	***** (>2.5° C.=*****)	
Cc1nsc(C2(C)CCN(c3cc(C)c4nc(C(=O)N5C[C@@H]6CN(c7cccc(C(=O)O)n7)C[C@@H]6C5)nn4c3)C2)n1 (some centres unmarked) [Compound 299]	*** (>1-1.5° C.=***)	
CO[C@@H]1CNC[C@H]1NC(=O)c1nc2c(C)cc(N3CC[C@](C)(c4ccccc4)C3)cn2n1 [Compound 140]	***** (>2.5° C.=*****)	
CCC1(c2ccccc2)CN(c2cc(C)c3nc(C45CC(CO)(CO4)C5c4nc(C)n[nH]4)nn3c2)C1 (centres unmarked) [Compound 579]		**** (>1.5-2.5° C.=****)
Cc1cc(N2CC[C@](C)(c3ccccc3)C2)cn2nc(C34CC(CO3)C4Cn3cc(C(=O)O)nn3)nc12 (some centres unmarked) [Compound 91]	***** (>2.5° C.=*****)	
COC(=O)C12CCC(NC(=O)c3nc4c(C)cc(N5CC[C@](C)(c6ccccc6)C5)cn4n3)(C1)C2 [Compound 175]	***** (>2.5° C.=*****)	
Cc1cc(N2CC[C@](C)(c3ccccc3)C2)cn2nc(C(=O)N3CC[C@@]4(CCN(c5cccc(C(=O)O)n5)C4)C3)nc12 [Compound 267]	***** (>2.5° C.=*****)	
Cc1cc(N2CCC(C)(O)C2)cn2nc(C(=O)N3CC4CN(c5cccc(C(=O)O)n5)CC4C3)nc12 (centres unmarked) [Compound 295]	* (0-0.5° C.=*)	
Cc1cc(N2CC[C@](C)(c3ccccc3)C2)cn2nc(C(=O)N3CCOC4(C3)CN(c3cccc(C(=O)O)n3)C4)nc12 [Compound 286]	***** (>2.5° C.=*****)	
Cc1ncn(CC23COC(c4nc5c(C)cc(N6CC[C@](C)(c7ccccc7)C6)cn5n4)(C2)C3)n1 [Compound 447]		***** (>2.5° C.=*****)
Cc1cc(N2CC[C@](C)(c3ccccc3)C2)cn2nc(C(=O)N3CC4CN(c5cccc(C(=O)O)n5)CC4C3)nc12 (some centres unmarked) [Compound 213]	***** (>2.5° C.=*****)	
Cc1cc(N2CC[C@](C)(c3ccccc3)C2)cn2nc(C(=O)N[C@@H]3CNC[C@@H]3O)nc12 [Compound 191]	***** (>2.5° C.=*****)	
Cc1cc(N2CC[C@](C)(c3ccccc3)C2)cn2nc(C(=O)NC3CCN(c4cccc(C(=O)O)c4)CC3)nc12 [Compound 273]	***** (>2.5° C.=*****)	
